Results taken from patent US20250171438A1 (Agios Pharmaceuticals, Inc., priority 2022, published 2025).

Molecular target: T1, human PAH with the R408W mutation (Homo sapiens, UniProt P00439, R408W)
T1 construct: expressed in transfected cells
T1 sequence (P00439 1-452 R408W): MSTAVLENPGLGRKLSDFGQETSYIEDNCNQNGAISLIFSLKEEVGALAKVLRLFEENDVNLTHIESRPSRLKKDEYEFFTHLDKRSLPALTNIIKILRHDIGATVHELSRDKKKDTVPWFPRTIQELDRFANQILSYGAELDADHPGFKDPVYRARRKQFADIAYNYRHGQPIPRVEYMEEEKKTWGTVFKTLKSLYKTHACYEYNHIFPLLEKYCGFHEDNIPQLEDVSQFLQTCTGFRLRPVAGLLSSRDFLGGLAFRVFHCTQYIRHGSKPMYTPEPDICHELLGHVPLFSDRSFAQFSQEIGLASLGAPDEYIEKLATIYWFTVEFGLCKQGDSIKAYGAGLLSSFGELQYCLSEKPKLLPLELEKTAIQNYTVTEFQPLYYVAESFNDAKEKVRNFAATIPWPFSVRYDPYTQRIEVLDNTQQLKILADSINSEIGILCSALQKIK
Assay: Cell Based Phenylalanine Flux Assay
Details: A375 cells expressing human R408W PAH; 24 hrs compound incubation; 13C-Tyrosine by LC-MS; average where tested multiple times; read-out: AC50
Protocol: Compounds were resuspended in DMSO, and 2-fold serial dilutions were performed to generate a 10-point dose curve. Compounds were added to plated cells in a total volume of 100 pal, and a final DMSO concentration of 0.5%. Each compound was tested in duplicate. Following compound addition, cells were placed in a 5% CO2, 37° C. tissue culture incubator for 24 hrs. After the incubation period, 20 μM sepiapterin and 800 μM 13C9,15N-Phenylalanine were added. After 4 hours, cell media was removed. An aliquot of 10 μl of cell media was combined with 200 μl of extraction buffer (80% acetonitrile/20% H2O) for each well. Determination of ^13C-Tyrosine concentration was assessed by liquid chromatography mass spectrometry.
Where a compound was tested multiple times, the average value of the tests is reported.

Row | AC50 | Structure (SMILES)
1 | 1000 to 5000 nM | O=C(c1cnn2ccc(Br)cc12)N1CCc2[nH]cnc2[C@H]1c1nc2ccc(Br)cc2[nH]1 [Example 997, (S)-(4-(6-bromo-1H-benzo[d]imidazol-2-yl)-6,7-dihydro-1H-imidazo[4,5-c]pyridin-5(4H)-yl)(5-bromopyrazolo[1,5-a]pyridin-3-yl)methanone]
2 | > 5000 nM | O=C(c1cnn2ccc(Br)cc12)N1CCc2[nH]cnc2[C@@H]1c1nc2ccc(Br)cc2[nH]1 [Example 998, (R)-(4-(6-bromo-1H-benzo[d]imidazol-2-yl)-6,7-dihydro-1H-imidazo[4,5-c]pyridin-5(4H)-yl)(5-bromopyrazolo[1,5-a]pyridin-3-yl)methanone]
3 | 1000 to 5000 nM | O=C(c1nc2ccccc2o1)N1CCc2[nH]cnc2[C@H]1c1nc2ccccc2[nH]1 [Example 999, (S)-(4-(1H-benzo[d]imidazol-2-yl)-6,7-dihydro-1H-imidazo[4,5-c]pyridin-5(4H)-yl)(benzo[d]oxazol-2-yl)methanone]
4 | 1000 to 5000 nM | O=C(CC1CC1)N1CCc2[nH]cnc2[C@@H]1c1nc2ccccc2[nH]1 [Example 1000, (R)-1-(4-(1H-benzo[d]imidazol-2-yl)-6,7-dihydro-1H-imidazo[4,5-c]pyridin-5(4H)-yl)-2-cyclopropylethanone]
5 | 500 to 1000 nM | O=C(c1nc2ccccc2s1)N1CCc2[nH]cnc2[C@H]1c1nc2ccccc2s1 [Example 1001, (S)-benzo[d]thiazol-2-yl(4-(benzo[d]thiazol-2-yl)-6,7-dihydro-1H-imidazo[4,5-c]pyridin-5(4H)-yl)methanone]
6 | 1000 to 5000 nM | O=C(c1nc2ccccc2s1)N1CCc2[nH]cnc2[C@@H]1c1nc2ccccc2s1 [Example 1002, (R)-benzo[d]thiazol-2-yl(4-(benzo[d]thiazol-2-yl)-6,7-dihydro-1H-imidazo[4,5-c]pyridin-5(4H)-yl)methanone]
7 | 500 to 1000 nM | O=C(CCc1nccs1)N1CCc2[nH]cnc2[C@H]1c1nc2ccccc2s1 [Example 1003]
8 | 1000 to 5000 nM | O=C(CCc1nccs1)N1CCc2nc[nH]c2[C@@H]1c1nc2ccccc2s1 [Example 1004, (R)-1-(4-(benzo[d]thiazol-2-yl)-6,7-dihydro-3H-imidazo[4,5-c]pyridin-5(4H)-yl)-3-(thiazol-2-yl)propan-1-one]
9 | 500 to 1000 nM | O=C(CCc1ccc(F)cc1)N1CCc2[nH]cnc2[C@H]1c1nc2ccccc2s1 [Example 1005]
10 | > 5000 nM | O=C(CCc1ccc(F)cc1)N1CCc2[nH]cnc2[C@@H]1c1nc2ccccc2s1 [Example 1006, (R)-1-(4-(benzo[d]thiazol-2-yl)-6,7-dihydro-1H-imidazo[4,5-c]pyridin-5(4H)-yl)-3-(4-fluorophenyl)propan-1-one]
11 | < 500 nM | O=C(c1nccs1)N1CCc2[nH]cnc2[C@H]1c1nc2ccccc2s1 [Example 1007]
12 | > 5000 nM | O=C(c1nccs1)N1CCc2[nH]cnc2[C@@H]1c1nc2ccccc2s1 [Example 1008, (R)-(4-(benzo[d]thiazol-2-yl)-6,7-dihydro-1H-imidazo[4,5-c]pyridin-5(4H)-yl)(thiazol-2-yl)methanone]
13 | < 500 nM | O=C(c1cnn2ccccc12)N1CCc2[nH]cnc2[C@H]1c1nc2ccccc2s1 [Example 1009]
14 | 1000 to 5000 nM | O=C(c1cnn2ccccc12)N1CCc2[nH]cnc2[C@@H]1c1nc2ccccc2s1 [Example 1010, (R)-(4-(benzo[d]thiazol-2-yl)-6,7-dihydro-1H-imidazo[4,5-c]pyridin-5(4H)-yl)(pyrazolo[1,5-a]pyridin-3-yl)methanone]
15 | 500 to 1000 nM | COc1cccc(/C=C/C(=O)N2CCc3[nH]cnc3[C@H]2c2nc3ccccc3s2)c1 [Example 1011]
16 | > 5000 nM | COc1cccc(/C=C/C(=O)N2CCc3[nH]cnc3[C@@H]2c2nc3ccccc3s2)c1 [Example 1012, (R,E)-1-(4-(benzo[d]thiazol-2-yl)-6,7-dihydro-1H-imidazo[4,5-c]pyridin-5(4H)-yl)-3-(3-methoxyphenyl)prop-2-en-1-one]
17 | 500 to 1000 nM | COc1cccc(CCCC(=O)N2CCc3[nH]cnc3[C@H]2c2nc3ccccc3s2)c1 [Example 1013]
18 | > 5000 nM | COc1cccc(CCCC(=O)N2CCc3[nH]cnc3[C@@H]2c2nc3ccccc3s2)c1 [Example 1014, (R)-1-(4-(benzo[d]thiazol-2-yl)-6,7-dihydro-1H-imidazo[4,5-c]pyridin-5(4H)-yl)-4-(3-methoxyphenyl)butan-1-one]
19 | 500 to 1000 nM | O=C(CCC1CCCC1)N1CCc2[nH]cnc2[C@H]1c1nc2ccccc2s1 [Example 1015]
20 | 1000 to 5000 nM | O=C(CCC1CCCC1)N1CCc2[nH]cnc2[C@@H]1c1nc2ccccc2s1 [Example 1016, (R)-1-(4-(benzo[d]thiazol-2-yl)-6,7-dihydro-1H-imidazo[4,5-c]pyridin-5(4H)-yl)-3-cyclopentylpropan-1-one]
21 | 500 to 1000 nM | Cc1nnc(CCC(=O)N2CCc3[nH]cnc3[C@H]2c2nc3ccccc3s2)s1 [Example 1019]

Row | AC50 | Structure (SMILES)
22 | > 5000 nM | Cc1nnc(CCC(=O)N2CCc3[nH]cnc3[C@@H]2c2nc3ccccc3s2)s1 [Example 1020, (R)-1-(4-(benzo[d]thiazol-2-yl)-6,7-dihydro-1H-imidazo[4,5-c]pyridin-5(4H)-yl)-3-(5-methyl-1,3,4-thiadiazol-2-yl)propan-1-one]
23 | < 500 nM | O=C(CCC1CC1)N1CCc2[nH]cnc2[C@H]1c1nc2ccccc2s1 [Example 1021]
24 | 1000 to 5000 nM | O=C(CCC1CC1)N1CCc2[nH]cnc2[C@@H]1c1nc2ccccc2s1 [Example 1022, (R)-1-(4-(benzo[d]thiazol-2-yl)-6,7-dihydro-1H-imidazo[4,5-c]pyridin-5(4H)-yl)-3-cyclopropylpropan-1-one]
25 | 500 to 1000 nM | O=C(CCc1nc(Cl)cs1)N1CCc2[nH]cnc2[C@H]1c1nc2ccccc2s1 [Example 1023]
26 | > 5000 nM | O=C(CCc1nc(Cl)cs1)N1CCc2[nH]cnc2[C@@H]1c1nc2ccccc2s1 [Example 1024, (R)-1-(4-(benzo[d]thiazol-2-yl)-6,7-dihydro-1H-imidazo[4,5-c]pyridin-5(4H)-yl)-3-(4-chlorothiazol-2-yl)propan-1-one]
27 | 1000 to 5000 nM | O=C(CCc1ncc(Cl)s1)N1CCc2[nH]cnc2[C@H]1c1nc2ccccc2s1 [Example 1025]
28 | 1000 to 5000 nM | O=C(CCc1ncc(Cl)s1)N1CCc2[nH]cnc2[C@@H]1c1nc2ccccc2s1 [Example 1026, (R)-1-(4-(benzo[d]thiazol-2-yl)-6,7-dihydro-1H-imidazo[4,5-c]pyridin-5(4H)-yl)-3-(5-chlorothiazol-2-yl)propan-1-one]
29 | 500 to 1000 nM | O=C(c1ncn2ccccc12)N1CCc2[nH]cnc2[C@H]1c1nc2ccccc2s1 [Example 1027]
30 | > 5000 nM | O=C(c1ncn2ccccc12)N1CCc2[nH]cnc2[C@@H]1c1nc2ccccc2s1 [Example 1028, (R)-(4-(benzo[d]thiazol-2-yl)-6,7-dihydro-1H-imidazo[4,5-c]pyridin-5(4H)-yl)(imidazo[1,5-a]pyridin-1-yl)methanone]
31 | 500 to 1000 nM | O=C(CCc1nccs1)N1CCc2[nH]cnc2[C@H]1c1nc2ccc(F)cc2s1 [Example 1029, (S)-1-(4-(6-fluorobenzo[d]thiazol-2-yl)-6,7-dihydro-1H-imidazo[4,5-c]pyridin-5(4H)-yl)-3-(thiazol-2-yl)propan-1-one]
32 | > 5000 nM | O=C(CCc1nccs1)N1CCc2[nH]cnc2[C@@H]1c1nc2ccc(F)cc2s1 [Example 1030, (R)-1-(4-(6-fluorobenzo[d]thiazol-2-yl)-6,7-dihydro-1H-imidazo[4,5-c]pyridin-5(4H)-yl)-3-(thiazol-2-yl)propan-1-one]
33 | 500 to 1000 nM | Cc1cnc(CCC(=O)N2CCc3[nH]cnc3[C@H]2c2nc3ccccc3s2)s1 [Example 1031]
34 | > 5000 nM | Cc1cnc(CCC(=O)N2CCc3[nH]cnc3[C@@H]2c2nc3ccccc3s2)s1 [Example 1032, (R)-1-(4-(benzo[d]thiazol-2-yl)-6,7-dihydro-1H-imidazo[4,5-c]pyridin-5(4H)-yl)-3-(5-methylthiazol-2-yl)propan-1-one]
35 | 500 to 1000 nM | O=C(Cc1nc(C(F)(F)F)cs1)N1CCc2[nH]cnc2[C@H]1c1nc2ccccc2s1 [Example 1033]
36 | > 5000 nM | O=C(Cc1nc(C(F)(F)F)cs1)N1CCc2[nH]cnc2[C@@H]1c1nc2ccccc2s1 [Example 1034, (R)-1-(4-(benzo[d]thiazol-2-yl)-6,7-dihydro-1H-imidazo[4,5-c]pyridin-5(4H)-yl)-2-(4-(trifluoromethyl)thiazol-2-yl)ethenone]
37 | 500 to 1000 nM | O=C(CCc1nccs1)N1CCc2[nH]cnc2[C@H]1c1nc2cccc(F)c2s1 [Example 1035, (S)-1-(4-(7-fluorobenzo[d]thiazol-2-yl)-6,7-dihydro-1H-imidazo[4,5-c]pyridin-5(4H)-yl)-3-(thiazol-2-yl)propan-1-one]
38 | 1000 to 5000 nM | O=C(CCc1nccs1)N1CCc2[nH]cnc2[C@@H]1c1nc2cccc(F)c2s1 [Example 1036, (R)-1-(4-(7-fluorobenzo[d]thiazol-2-yl)-6,7-dihydro-1H-imidazo[4,5-c]pyridin-5(4H)-yl)-3-(thiazol-2-yl)propan-1-one]
39 | 500 to 1000 nM | O=C(Cc1nccs1)N1CCc2[nH]cnc2[C@H]1c1nc2ccccc2s1 [Example 1037]
40 | > 5000 nM | O=C(Cc1nccs1)N1CCc2[nH]cnc2[C@@H]1c1nc2ccccc2s1 [Example 1038, (R)-1-(4-(benzo[d]thiazol-2-yl)-6,7-dihydro-1H-imidazo[4,5-c]pyridin-5(4H)-yl)-2-(thiazol-2-yl)ethenone]
41 | 500 to 1000 nM | O=C(c1cnn2cc(F)ccc12)N1CCc2[nH]cnc2[C@H]1c1nc2ccccc2s1 [Example 1039]
